# Laboratory results from US20090170810A1, “METHODS OF TREATMENT OF CARDIOVASCULAR AND CEREBROVASCULAR DISEASES WITH LOW MOLECULAR WEIGHT FUCOIDAN” (Beijing Century Biocom Pharmaceutical Technology Co. Ltd., priority 2006, published 2009).
# Columns and labels:
# decapitated mice [1] = test: Brain index and brain water content in decapitated mice; format: in vivo, ICR mice; details: 2 mg/kg
# Protocol: (§1) ICR mice (equally divided between male and female) were divided randomly in a blank control group, a positive control group and dosage groups of sample A (200, 100, and 50 mg/kg) and sample B (400, 200, 100, 50 mg/kg). The mice in medical groups were administrated by tail intravenous injection, and the dosage was […]. The positive control group was administrated nimodipine (2 mg/kg) by tail intravenous injection. The model group was administrated normal salt. At 15 minutes after administration, the mice were decapitated by a pair of scissors. The mouth breathing time, breathing frequency and brain water content were recorded and compared with other groups.
# Measurement of brain water content: whole brains were collected, after the wet weight was obtained, they were dried in an oven at 100° C. for 24 hours, the average value was taken to calculate brain water content: brain water content(%)=[…]. Brain index: brain index=brain wet weight (g)/body weight (g)×100%.
# brain of ischemic mice = test: Cerebral ischemia in mice with common carotid artery ligation and reperfusion (brain LDH, SOD); format: in vivo; details: 2 mg/kg
# Protocol: Experimental grouping: a control group and a model group (respectively administrating an equal volume of normal salt), a positive control group (nimodipine, 2 mg/kg), sample A groups (200, 100, and 50 mg/kg), and sample B groups (200, 100, and 50 mg/kg), the injection dosage being […].
# Animal model setup: the grouped mice were respectively administrated test substance, nimodipine or normal salt by tail intravenous injection. After 15 minutes, the mice were anesthetized with 3.5% chloral hydrate, fixed in the back. The right and left common carotid artery and vagus nerve were exposed, and 4-0 suture was inserted under the bilateral carotid arteries. The line was tightened to block blood flow for 5 minutes. Then the line was loosened to make the blood reperfusion for 10 minutes. The operation was repeated three times, and an ischemia-reperfusion model in mice was established. After the last reperfusion, the mice were decapitated and brain collected. In the control group, only the bilateral carotid arteries were exposed, without line being inserted.
# decapitated mice [2] = test: Breathing time and breathing frequency in decapitated mice; format: in vivo, ICR mice; details: 2 mg/kg, tail i.v., decapitated 15 minutes after administration
# Protocol: as §1
compound,measurement,setting,value
"COCCOC(=O)C1=C(C)NC(C)=C(C(=O)OC(C)C)C1c1cccc([N+](=O)[O-])c1 (stereo not drawn) [Nimodipine, nimodipine]",Brain index (%),decapitated mice [1],1.40 ± 0.14 %
same,Brain water content (%),decapitated mice [1],75.1 ± 0.9 %
same,LDH (U/mg),brain of ischemic mice,11.3 ± 6.6 U/mg
same,SOD (U/mg),brain of ischemic mice,144.77 ± 21.61 U/mg
same,Breathing frequency (times),decapitated mice [2],17.0 ± 3.2 times
same,Breathing time,decapitated mice [2],23.8 ± 3.2 s
